Test results taken from patent US20100286145A1, “ISOPHTHALAMIDE DERIVATIVES INHIBITING BETA-SECRETASE ACTIVITY” (CoMentis, Inc., priority 2007, published 2010).
pKi: −log10 of the molar value.

What follows are compounds tested against memapsin 2 (Homo sapiens, UniProt P56817) (assay: Inhibition of memapsin 2 beta-secretase activity (fluorogenic substrate FS-2)). Conditions: memapsin 2, pH 4, 37° C., 20 minutes pre-incubation; read-out: M2Ki.
Type: biochemical
Description: Potency of compounds were determined by measurement of their inhibition of memapsin 2 activity toward a fluorescent substrate. Kinetic inhibition experiments were performed using the procedure as described in Ermolieff, et al. (Biochemistry 39:12450-12456 (2000), the teachings of which are incorporated hereby in their entirety). Briefly, assays were performed at pH 4, 37° C., by pre-incubation of memapsin 2 enzyme with compound for 20 minutes. Activity measurements were initiated by addition of a fluorogenic substrate FS-2 (Bachem Americas, Torrance, Calif.) MCA-SEVNLDAEFR-DNP (SEQ ID NO.: 2). The substrate was derived from 10 amino acids of the human amyloid precursor protein (APP), with the Swedish variant amino acids at the beta-secretase cleavage site. The terminal amino acid was modified from arginine to lysine to facilitate derivatization with a functional group for detection by autofluorescence. The amino acid sequence of the “core” peptide of the substrate is SEVNLDAEFK (SEQ ID NO.: 3). The amino terminus was derivatized with (7-methoxycoumarin-4-yl)acetyl (MCA), and the epsilon amine of the lysine side chain of the terminal residue (K in sequence SEVNLDAEFK (SEQ ID NO.: 3)) was derivatized with 2,4-dinitorphenyl (DNP).
Fluorescent signal increase over time was measured as a rate of hydrolysis of the peptide substrate. Inhibition of hydrolytic rate was expressed relative to uninhibited controls and fit to a model for tight-binding inhibitors (J. Bieth, in “Proteinase Inhibitors,” Bayer Symposium V, 463-469, 1974, which is herein incorporated by reference for all purposes in its entirety).

memapsin 2, sequence (P56817 46-501): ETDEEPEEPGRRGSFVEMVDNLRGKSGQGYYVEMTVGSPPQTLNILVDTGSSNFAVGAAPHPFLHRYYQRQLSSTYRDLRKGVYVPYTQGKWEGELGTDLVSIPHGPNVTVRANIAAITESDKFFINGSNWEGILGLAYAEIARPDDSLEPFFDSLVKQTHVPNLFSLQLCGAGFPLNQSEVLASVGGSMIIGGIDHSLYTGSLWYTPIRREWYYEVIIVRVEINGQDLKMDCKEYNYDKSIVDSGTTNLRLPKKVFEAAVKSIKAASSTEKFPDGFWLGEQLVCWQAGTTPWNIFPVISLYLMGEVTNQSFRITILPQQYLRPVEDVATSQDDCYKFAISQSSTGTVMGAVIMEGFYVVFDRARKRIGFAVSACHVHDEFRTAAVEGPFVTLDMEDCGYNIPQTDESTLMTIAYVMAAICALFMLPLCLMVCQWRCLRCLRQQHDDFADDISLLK

| SMILES | pKi |
| --- | --- |
| Cc1csc(CNC(=O)c2cccc(C(=O)N[C@@H](Cc3ccccc3)[C@H](O)CNCc3ccc(CS(C)(=O)=O)c(C)n3)c2)n1 [Compound 101, N1-((2S,3R)-3-hydroxy-4-((6-methyl-5-(methylsulfonylmethyl)pyridin-2-yl)methylamino)-1-phenylbutan-2-yl)-N3-((4-methylthiazol-2-yl)methyl)isophthalamide] | < 6.30 |
| COc1cccc(CNC[C@@H](O)[C@H](Cc2ccccc2)NC(=O)c2cc(C(=O)NCc3nccc(C)n3)cc(N(C)S(C)(=O)=O)c2)c1 [Compound 105, N1-((2S,3R)-3-hydroxy-4-(3-methoxybenzylamino)-1-phenylbutan-2-yl)-5-(N-methylmethylsulfonamido)-N3-((4-methylpyrimidin-2-yl)methyl)isophthalamide] | < 6.30 |
| COc1cccc(CNC[C@@H](O)[C@H](Cc2ccccc2)NC(=O)c2cccc(C(=O)N(C)Cc3cccc(C)n3)c2)c1 [Compound 108, N1-((2S,3R)-3-hydroxy-4-(3-methoxybenzylamino)-1-phenylbutan-2-yl)-N3-methyl-N3-((6-methylpyridin-2-yl)methyl)isophthalamide] | 6.30 to 6.52 |
| C[C@@H](NC(=O)c1cc(C(=O)N[C@@H](Cc2ccccc2)[C@H](O)CNCc2cc(C(C)(C)C)ccc2O[Si](C)(C)C(C)(C)C)cc(N(C)S(C)(=O)=O)c1)c1ccccc1 [Compound 109, N1-((2S,3R)-4-(5-tert-butyl-2-(tert-butyldimethylsilyloxy)benzylamino)-3-hydroxy-1-phenylbutan-2-yl)-5-(N-methylmethylsulfonamido)-N3-((R)-1-phenylethyl)isophthalamide] | > 6.52 |
| Cc1c(CNC[C@@H](O)[C@H](Cc2ccccc2)NC(=O)c2cc(C(=O)N[C@H](C)c3ccccc3)cc(N(C)S(C)(=O)=O)c2)cnn1C(C)(C)C [Compound 120, N1-((2S,3R)-4-((1-tert-butyl-5-methyl-1H-pyrazol-4-yl)methylamino)-3-hydroxy-1-phenylbutan-2-yl)-5-(N-methylmethylsulfonamido)-N3-((R)-1-phenylethyl)isophthalamide] | 6.30 to 6.52 |
| COc1cccc(CNC[C@@H](O)[C@H](Cc2ccccc2)NC(=O)c2cc(NO)cc(C(=O)N[C@H](C)c3ccccc3)c2)c1 [Compound 123, N1-((2S,3R)-3-hydroxy-4-(3-methoxybenzylamino)-1-phenylbutan-2-yl)-5-(hydroxyamino)-N3-((R)-1-phenylethyl)isophthalamide] | < 6.30 |
| COc1cccc(CNC[C@@H](O)[C@H](Cc2ccccc2)NC(=O)c2cc(C(=O)NCc3cccc(C)n3)cc(N(C)S(C)(=O)=O)c2)c1 [Compound 127, N1-((2S,3R)-3-hydroxy-4-(3-methoxybenzylamino)-1-phenylbutan-2-yl)-5-(N-methylmethylsulfonamido)-N3-((6-methylpyridin-2-yl)methyl)isophthalamide] | < 6.30 |
| Cc1csc(CN(C)C(=O)c2cccc(C(=O)N[C@H](Cc3ccccc3)[C@@H](O)CNCc3cncc(C(C)C)c3)c2)n1 [Compound 128, N1-((2R,3S)-3-hydroxy-4-((5-isopropylpyridin-3-yl)methylamino)-1-phenylbutan-2-yl)-N3-methyl-N3-((4-methylthiazol-2-yl)methyl)isophthalamide] | < 6.30 |
| COCCn1ncc(CNC[C@@H](O)[C@H](Cc2ccccc2)NC(=O)c2cc(C(=O)N[C@H](C)c3ccccc3)cc(N(C)S(C)(=O)=O)c2)c1C [Compound 131, N1-((2S,3R)-3-hydroxy-4-((1-(2-methoxyethyl)-5-methyl-1H-pyrazol-4-yl)methylamino)-1-phenylbutan-2-yl)-5-(N-methylmethylsulfonamido)-N3-((R)-1-phenylethyl)isophthalamide] | > 6.52 |
| COCCn1ncc(CNC[C@@H](O)[C@H](Cc2ccccc2)NC(=O)c2cccc(C(=O)N(C)Cc3nc(C)cs3)c2)c1C [Compound 132, N1-((2S,3R)-3-hydroxy-4-((1-(2-methoxyethyl)-5-methyl-1H-pyrazol-4-yl)methylamino)-1-phenylbutan-2-yl)-N3-methyl-N3-((4-methylthiazol-2-yl)methyl)isophthalamide] | < 6.30 |
| COc1cccc(CNC[C@@H](O)[C@H](Cc2ccccc2)NC(=O)c2cccc(C(=O)N(C)Cc3nccc(C)n3)c2)c1 [Compound 136, N1-((2S,3R)-3-hydroxy-4-(3-methoxybenzylamino)-1-phenylbutan-2-yl)-N3-methyl-N3-((4-methylpyrimidin-2-yl)methyl)isophthalamide] | < 6.30 |
| C[C@@H](NC(=O)c1cc(C(=O)N[C@@H](Cc2ccccc2)[C@H](O)CNCc2cnn(C(C)(C)C)c2)cc(N(C)S(C)(=O)=O)c1)c1ccccc1 [Compound 138, N1-((2S,3R)-4-((1-tert-butyl-1H-pyrazol-4-yl)methylamino)-3-hydroxy-1-phenylbutan-2-yl)-5-(N-methylmethylsulfonamido)-N3-((R)-1-phenylethyl)isophthalamide] | < 6.30 |
| Cc1csc(CN(C)C(=O)c2cccc(C(=O)N[C@@H](Cc3ccccc3)[C@@H](O)CNCc3cncc(C(C)C)c3)c2)n1 [Compound 147, N1-((2S,3S)-3-hydroxy-4-((5-isopropylpyridin-3-yl)methylamino)-1-phenylbutan-2-yl)-N3-methyl-N3-((4-methylthiazol-2-yl)methyl)isophthalamide] | < 6.30 |
| Cc1csc(CN(C)C(=O)c2cccc(C(=O)N[C@H](Cc3ccccc3)[C@H](O)CNCc3cncc(C(C)C)c3)c2)n1 [Compound 151, N1-((2R,3R)-3-hydroxy-4-((5-isopropylpyridin-3-yl)methylamino)-1-phenylbutan-2-yl)-N3-methyl-N3-((4-methylthiazol-2-yl)methyl)isophthalamide] | < 6.30 |
| CCN(CC)c1cccc(CNC[C@@H](O)[C@H](Cc2ccccc2)NC(=O)c2cccc(C(=O)N(C)Cc3nc(C)cs3)c2)c1 [Compound 152, N1-((2S,3R)-4-(3-(diethylamino)benzylamino)-3-hydroxy-1-phenylbutan-2-yl)-N3-methyl-N3-((4-methylthiazol-2-yl)methyl)isophthalamide] | > 6.52 |
| Cc1csc(CN(C)C(=O)c2cccc(C(=O)N[C@@H](Cc3ccccc3)[C@H](O)CNCc3cc(C(C)C)cnc3C)c2)n1 [Compound 153, N1-((2S,3R)-3-hydroxy-4-((5-isopropyl-2-methylpyridin-3-yl)methylamino)-1-phenylbutan-2-yl)-N3-methyl-N3-((4-methylthiazol-2-yl)methyl)isophthalamide] | > 6.52 |
| Cc1csc(CN(C)C(=O)c2cccc(C(=O)N[C@@H](Cc3ccccc3)[C@H](O)CN(Cc3cnn(C)c3)Cc3cnn(C)c3)c2)n1 [Compound 156, N1-((2S,3R)-4-(bis((1-methyl-1H-pyrazol-4-yl)methyl)amino)-3-hydroxy-1-phenylbutan-2-yl)-N3-methyl-N3-((4-methylthiazol-2-yl)methyl)isophthalamide] | < 6.30 |
| Cc1csc(CN(C)C(=O)c2cccc(C(=O)N[C@@H](Cc3ccccc3)[C@H](O)CNC(C)c3cccc(C(F)F)c3)c2)n1 (stereo partly drawn) [Compound 157, N1-((2S,3R)-4-(1-(3-(difluoromethyl)phenyl)ethylamino)-3-hydroxy-1-phenylbutan-2-yl)-N3-methyl-N3-((4-methylthiazol-2-yl)methyl)isophthalamide] | > 6.52 |
